Values joined by “and” are separate entries in the source; they are usually repeats but may differ in a detail not shown here. Identical values can stand only once. Inconclusive results and toxic doses are left out. Rule for the calls: active = survival T/C of 150% or more; inactive = T/C below 125% in these data. Peptide text beside a SMILES is read from it. * marks the point of attachment. Trt = c1ccc(C(c2ccccc2)(c2ccccc2)*)cc1; Benzhydryl = c1ccc(C(c2ccccc2)*)cc1; Cbz = O=C(OCc1ccccc1)*; OtBu = CC(C)(C)O*
System: P388 leukemia ip, CD2F1 mice, survival T/C
Assay: NCI In Vivo Anticancer Drug Screen. Data for tumor model P388 Leukemia (intraperitoneal) in CD2F1 (CDF1) mice
Details: endpoint: median survival time, higher = longer survival
In short: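 Mice carrying the transplanted tumor received test compound or vehicle. Survival was recorded in each group, and the value is the treated-group measurement divided by that of the vehicle-treated control group.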

[1] = dose: 50.0 mg/kg/injection, schedule: Q01DX009 (ip), vehicle: saline with Tween-80
[2] = dose: 100.0 mg/kg/injection, schedule: Q01DX009 (ip), vehicle: saline with Tween-80
[3] = dose: 200.0 mg/kg/injection, schedule: Q01DX009 (ip), vehicle: saline with Tween-80
[4] = dose: 60.0 mg/kg/injection, schedule: Q01DX005 (ip), vehicle: saline with Tween-80
[5] = dose: 120.0 mg/kg/injection, schedule: Q01DX005 (ip), vehicle: saline with Tween-80
[6] = dose: 240.0 mg/kg/injection, schedule: Q01DX005 (ip), vehicle: saline with Tween-80
[7] = dose: 100.0 mg/kg/injection, schedule: Q04DX003 (ip), vehicle: saline with Tween-80
[8] = dose: 200.0 mg/kg/injection, schedule: Q04DX003 (ip), vehicle: saline with Tween-80
[9] = dose: 25.0 mg/kg/injection, schedule: Q01DX005 (ip), vehicle: Klucel (hydroxypropylcellulose) (HPC)
[10] = dose: 50.0 mg/kg/injection, schedule: Q01DX005 (ip), vehicle: Klucel (hydroxypropylcellulose) (HPC)
[11] = dose: 100.0 mg/kg/injection, schedule: Q01DX005 (ip), vehicle: Klucel (hydroxypropylcellulose) (HPC)
[12] = dose: 200.0 mg/kg/injection, schedule: Q01DX005 (ip), vehicle: Klucel (hydroxypropylcellulose) (HPC)
[13] = dose: 50.0 mg/kg/injection, schedule: Q01DX009 (ip), vehicle: saline
[14] = dose: 100.0 mg/kg/injection, schedule: Q01DX009 (ip), vehicle: saline
[15] = dose: 200.0 mg/kg/injection, schedule: Q01DX009 (ip), vehicle: saline

Measured: T/C

COC(=O)CCc1c(C)nc(N(C)C)oc1=O
inactive: dose: 60.0 mg/kg/injection, schedule: Q01DX005 (ip), vehicle: saline 100 % of control | dose: 120.0 mg/kg/injection, schedule: Q01DX005 (ip), vehicle: saline 100 % of control | dose: 240.0 mg/kg/injection, schedule: Q01DX005 (ip), vehicle: saline 99 % of control

CC1(C)COC2(CC3(C)CC(=O)CC3(C)C2)OC1 (stereo not given)
inactive: [1] 105 % of control | [2] 90 % of control | [3] 102 % of control

O=C1C=CC(=O)N1c1ccc(Br)cc1Cl
inactive: dose: 1.0 mg/kg/injection, schedule: Q01DX009 (ip), vehicle: saline 104 % of control | dose: 1.8 mg/kg/injection, schedule: Q04DX003 (ip), vehicle: saline 113 % of control | dose: 2.0 mg/kg/injection, schedule: Q01DX009 (ip), vehicle: saline 109 % of control | dose: 2.6 mg/kg/injection, schedule: Q04DX003 (ip), vehicle: saline 109 % of control | dose: 4.0 mg/kg/injection, schedule: Q01DX009 (ip), vehicle: saline 113 % of control | dose: 4.0 mg/kg/injection, schedule: Q04DX003 (ip), vehicle: saline 113 % of control | dose: 6.0 mg/kg/injection, schedule: Q04DX003 (ip), vehicle: saline 118 % of control

Nc1ncnc2nc(-c3ccc(SCc4ccccc4)cc3)[nH]c12
inactive: [4] 95 % of control | [5] 94 % of control | [6] 93 % of control

CN(C)c1ccc(/C=C/c2cc[n+](C)cc2)cc1
inactive: dose: 2.0 mg/kg/injection, schedule: Q01DX009 (ip), vehicle: saline with Tween-80 110 % of control | dose: 2.0 mg/kg/injection, schedule: Q04DX003 (ip), vehicle: saline with Tween-80 91 % of control | dose: 4.0 mg/kg/injection, schedule: Q01DX009 (ip), vehicle: saline with Tween-80 100 % of control | dose: 4.0 mg/kg/injection, schedule: Q04DX003 (ip), vehicle: saline with Tween-80 100 % of control | dose: 8.0 mg/kg/injection, schedule: Q01DX009 (ip), vehicle: saline with Tween-80 100 % of control | dose: 8.0 mg/kg/injection, schedule: Q04DX003 (ip), vehicle: saline with Tween-80 108 % of control

COc1cccc2c1C(=O)c1c(O)c3c(c(O)c1C2=O)C[C@@](O)(c1csc(-c2ccncc2)n1)C[C@@H]3OC1CC(N)C(O)C(C)O1 (stereo not given in full)
inactive: dose: 6.25 mg/kg/injection, schedule: Q04DX003 (ip), vehicle: water 118 % of control | dose: 12.5 mg/kg/injection, schedule: Q04DX003 (ip), vehicle: water 122 % of control | dose: 25.0 mg/kg/injection, schedule: Q04DX003 (ip), vehicle: water 100 % of control | dose: 50.0 mg/kg/injection, schedule: Q04DX003 (ip), vehicle: water 118 % of control | dose: 200.0 mg/kg/injection, schedule: Q04DX003 (ip), vehicle: water 92 % of control

N#CC#Cc1cccc(C#CC#N)c1
inactive: dose: 6.25 mg/kg/injection, schedule: Q01DX001 (ip), vehicle: saline with Tween-80 110 % of control | dose: 12.5 mg/kg/injection, schedule: Q01DX001 (ip), vehicle: saline with Tween-80 100 % of control

Cc1ccc(S(=O)(=O)NC(=S)Nc2ccccc2)cc1
inactive: [7] 99 % of control | [8] 108 % of control | dose: 400.0 mg/kg/injection, schedule: Q04DX003 (ip), vehicle: saline with Tween-80 100 % of control

O=C(Nc1ccc(-c2ccc(NC(=O)C34CC5CC(CC(C5)C3)C4)cc2)cc1)C12CC3CC(CC(C3)C1)C2
inactive: [9] 98 % of control and 100 % of control | [10] 101 % of control | [11] 89 % of control and 92 % of control | [12] 97 % of control

Cc1cc(-c2ccccc2)n(C(C(=O)c2ccccc2)c2ccccc2)n1 (stereo not given)
inactive: [1] 101 % of control | [2] 106 % of control | [3] 100 % of control

Cc1cc(Cl)ccc1NC(=O)COc1ccc(Cl)cc1Cl
inactive: dose: 50.0 mg/kg/injection, schedule: Q04DX003 (ip), vehicle: saline with Tween-80 100 % of control | [7] 95 % of control | [8] 90 % of control

CCOc1cnc(CO)o1
inactive: dose: 100.0 mg/kg/injection, schedule: Q04DX003 (ip), vehicle: saline 103 % of control | dose: 200.0 mg/kg/injection, schedule: Q04DX003 (ip), vehicle: saline 104 % of control | dose: 400.0 mg/kg/injection, schedule: Q04DX003 (ip), vehicle: saline 97 % of control

O=C1OCCN1/N=C/C=N/N1CCOC1=O
inactive: dose: 1.56 mg/kg/injection, schedule: Q01DX009 (ip), vehicle: saline with Tween-80 95 % of control | dose: 3.12 mg/kg/injection, schedule: Q01DX009 (ip), vehicle: saline with Tween-80 95 % of control | dose: 6.25 mg/kg/injection, schedule: Q01DX009 (ip), vehicle: saline with Tween-80 105 % of control

O=C(O)c1cc(-c2cccc3ccccc23)nc2cc3ccccc3cc12
inactive: [1] 106 % of control and 94 % of control | [2] 100 % of control | [3] 102 % of control | dose: 400.0 mg/kg/injection, schedule: Q01DX009 (ip), vehicle: saline with Tween-80 118 % of control

NNC(=O)c1ccc2ccccc2c1O
inactive: dose: 25.0 mg/kg/injection, schedule: Q01DX009 (ip), vehicle: saline 103 % of control | [13] 99 % of control | [14] 101 % of control | [15] 96 % of control

CCCCCCCCCCCCCCCC[N+]1(CC)CCSCC1
inactive: [13] 100 % of control | [14] 96 % of control | [15] 100 % of control

COc1ccc2c(c1)CCc1c-2nc(N)nc1-c1nc(N)nc2c1CCc1cc(OC)ccc1-2
inactive: [4] 100 % of control | [5] 100 % of control | [6] 100 % of control

CCC1(c2ccc(C)cc2)C(=O)NC(=S)NC1=O
inactive: [4] 102 % of control | [5] 94 % of control

CN(C)C1C=C(c2ccccc2)OS(=O)(=O)C1 (stereo not given)
inactive: [1] 99 % of control | [2] 97 % of control | [3] 113 % of control

CCOC(=O)N1N=C(c2ccccc2)OC2(N3CCCC3)CCC(C(C)(C)C)CC12 (stereo not given)
inactive: [10] 89 % of control | [11] 96 % of control | [12] 96 % of control

CC(C)(C)OC(=O)CNC(=O)C(Cc1ccccc1)NC(=O)C(CSC(c1ccccc1)(c1ccccc1)c1ccccc1)NC(=O)CNC(=O)C(Cc1ccccc1)NC(=O)CNC(=O)C(CSC(c1ccccc1)c1ccccc1)NC(=O)C(CSC(c1ccccc1)(c1ccccc1)c1ccccc1)NC(=O)OCc1ccccc1 (stereo not given) (Cbz-C(Trt)C(Benzhydryl)GFGC(Trt)FG-OtBu; configuration not given here)
inactive: dose: 60.0 mg/kg/injection, schedule: Q01DX005 (ip), vehicle: Klucel (hydroxypropylcellulose) (HPC) 100 % of control | dose: 120.0 mg/kg/injection, schedule: Q01DX005 (ip), vehicle: Klucel (hydroxypropylcellulose) (HPC) 98 % of control

CCCCCCCCCC[N+]1([O-])CCOCC1
inactive: [13] 100 % of control | [14] 89 % of control

CCCCCCCCCCCCCCCC[N+](C)(C)CC(=O)O
inactive: dose: 12.5 mg/kg/injection, schedule: Q01DX009 (ip), vehicle: saline with Tween-80 104 % of control | dose: 25.0 mg/kg/injection, schedule: Q01DX009 (ip), vehicle: saline with Tween-80 86 % of control | [1] 105 % of control

CCCCCCCOC(=O)c1cc2cc(C(CC)C(CC)c3ccc(O)cc3)ccc2oc1=O (stereo not given)
inactive: [4] 105 % of control | [5] 92 % of control | [6] 95 % of control

CCCCOc1ccc(C(C)c2cc3c(cc2OCC)OCO3)cc1 (stereo not given)
inactive: [9] 103 % of control | [10] 103 % of control | [11] 100 % of control | [12] 104 % of control

CC1=CC2=C(C(N)=O)C(=O)OC2(C)C(c2ccccc2)C1 (stereo not given)
inactive: [4] 101 % of control | [5] 101 % of control | [6] 100 % of control

Cc1cc2c(C#N)c3ccccc3c(=O)n2c2ccccc12
inactive: [10] 98 % of control | [11] 96 % of control | [12] 100 % of control

c1ccc([P+](COC[P+](c2ccccc2)(c2ccccc2)c2ccccc2)(c2ccccc2)c2ccccc2)cc1
inactive: dose: 6.25 mg/kg/injection, schedule: Q01DX009 (ip), vehicle: Klucel (hydroxypropylcellulose) (HPC) 92 % of control | dose: 12.5 mg/kg/injection, schedule: Q01DX009 (ip), vehicle: Klucel (hydroxypropylcellulose) (HPC) 94 % of control

C=C1C(=O)OC2C1CCC(C)C1C=CC(=O)C12C (stereo not given)
inactive: dose: 25.0 mg/kg/injection, schedule: Q04DX002 (ip), vehicle: saline with Tween-80 115 % of control | dose: 50.0 mg/kg/injection, schedule: Q04DX002 (ip), vehicle: saline with Tween-80 114 % of control | dose: 100.0 mg/kg/injection, schedule: Q04DX002 (ip), vehicle: saline with Tween-80 119 % of control
